Laboratory results published in patent US8906425B2, “Stimulation of the synthesis of the activity of an isoform of lysyl oxidase-like LOXL for stimulating the formation of elastic fibers” (BASF Beauty Care Solutions France S.A.S., priority 2003, dated 2014).
Marks after values point to notes of the source that are not given here.

Experiments:
elastin mRNA [1] = test: Real time RT-PCR effectiveness study, elastin mRNA; type: cell-based, human; details: 24 hours, adult fibroblasts (donor)
Procedure: (§1) […] The culture was carried out e.g. in monolayer in 24-well plates, in a defined medium without serum. (Fibroblast Basal Medium). The cells are sown e.g. at 40,000 per cm^2. After the time of placing the actives in contact with the cells (24 hours), the media were removed and the cells were preserved e.g. by dry freezing at −80° C. after a rinsing with phosphate buffer at pH 7.4. At the end of experimentation, the content of mRNA of elastin, of LOXL and of actin is evaluated by an mRNA analysis technique, e.g. by real time RT-PCR. For this, the couples of primers enabling the amplification of specific fragments of these genes are those described above (Example 10).
(§2) After extraction e.g. with the aid of an extraction kit in 96-wells on silica columns and determination on a 96-well spectrophotometer at 260 nm, the RNAs are diluted e.g. to 5 ng/μl. The RT-PCR reactions (Reverse Polymerase Transcription Chain Reactions) were carried out by quantitative real time RT-PCR with the aid of the “Opticon” system (MJ Research). Advantageously, the reaction mixture (50 μl) introduced into the wells was the following, for each sample: • 10 μl of RNA at a concentration of 5 ng/μl, • The specific primers of the various labels sought after, • Reaction mixture (Qiagen 25 μl 2xQuantiTect SYBR Green RT-PCR master mix containing 5 mM MgCl2+0.5 μl QuantiTect RT mix), the label SYBR Green I inserting in the DNA double strands during the elongation step. […] Analysis and Method of Calculation: The incorporation of fluorescence in the amplified DNA was evaluated continuously during the PCR cycles. This system enabled obtaining curves of fluorescence measurement as a function of the number of PCR cycles and thus enabled evaluating a relative amount of amplified DNA. […] According to the experimentation, the threshold of measurement of the C (T) (=Cycle Threshold) was fixed for T between 0.05 and 0.01, and then an arbitrary measurement unit is calculated for each gene according to the formula: Sgene ? x ? =10^7×(½)^C(T)gene ? ^x ? […]

LOXL mRNA = test: Real time RT-PCR effectiveness study, LOXL mRNA; type: cell-based, human; details: 24 hours, adult fibroblasts (donor)
Procedure: as §1, §2

LOX mRNA = test: Real time RT-PCR effectiveness study, LOX mRNA; type: cell-based, human; details: active at 5%, 24 hours, adult fibroblasts (donor)
elastin mRNA [2] = test: Positive controls: stimulation of elastin mRNA synthesis by quantitative RT-PCR; type: cell-based; details: fibroblasts of normal human skin
Procedure: (§3) The active principles were tested at 1% (v/v) on fibroblasts of normal human skin (originating from the foreskin of the infant or originating from the adult). The culture was carried out, e.g. in a monolayer on 24-well culture plates, in a defined medium without serum (Fibroblast Basal Medium). The cells were sown, e.g. at 40,000 per cm^2. At the confluence, the cells are placed in contact with the actives advantageously for 24 hours. In parallel, a non-treated control (medium alone) and three positive controls (TGF-β at 1 ng/ml, IL-1α at 50 pg/ml and Phytokine® (Coletica, Lyons, France) at 2% (v/v)) are advantageously carried out, e.g. on the same culture plate. The TGF-β at 1 ng/ml and the IL-1α at 50 pg/ml were tested beforehand and the stimulation of the synthesis of elastin mRNA induced by these two cytokines at these concentrations was verified by an analysis of the mRNAs, e.g. by quantitative RT-PCR (×10 for TGF-β and ×6 for IL-1 alpha). After the time of placing the actives in contact with the cells, e.g. 24 hours, the media are removed and the cells are preserved e.g. by dry freezing at −80° C. after a rinsing in phosphate buffer pH 7.4. The total RNAs are extracted e.g. with the aid of an extraction kit of 96 wells on silica columns and were determined on a 96-well spectrophotometer at 260 nm (purity indicator: protein determination at 280 nm). […]

elastin (Eln) mRNA = test: Screening of active principles by qualitative RT-PCR, elastin mRNA; type: cell-based, human; details: actives at 1% (v/v), 24 hours, adult abdomen fibroblasts (donor), mRNA vs actin and non-treated control
Procedure: as §3

## CCCC(=O)OC [methyl butyrate]
Elastin mRNA [1]; active at 0.01%
  El Control multiplied by:: 0.92
Elastin mRNA [1]; active at 0.1%
  El Control multiplied by:: 0.96
Elastin mRNA [1]; active at 5%
  El Control multiplied by:: 1.70*
LOXL mRNA; active at 0.01%
  LOXL Control multiplied by:: 0.89
LOXL mRNA; active at 1%
  LOXL Control multiplied by:: 2.10*
LOXL mRNA; active at 5%
  LOXL Control multiplied by:: 0.91
LOX mRNA
  LOX Control multiplied by:: 0.91

## TGF-β [reference compound]
Elastin mRNA [2]; TGF-β at 1 ng/ml
  stimulation of the synthesis of elastin mRNA (×): 10

## ethyl hexenoate
Elastin (Eln) mRNA
  Eln Control multiplied by:: 1.5

B1: IL-1 alpha: cytokine used as positive control at 50 pg/ml (protein, UniProt P01583 113-271, looked up)
Interleukin-1 alpha: SAPFSFLSNVKYNFMRIIKYEFILNDALNQSIIRANDQYLTAAALHNLDEAVKFDMGAYKSSKDDAKITVILRISKTQLYVTAQDEDQPVLLKEMPEIPKTITGSETNLLFFWETHGTKNYFTSVAHPNLFIATKQDYWVCLAGGPPSITDFQILENQA
Elastin mRNA [2]; IL-1α at 50 pg/ml
  stimulation of the synthesis of elastin mRNA (×): 6
